{"source": "patent US6514953B1", "about": "“Calcium (3S) tetrahydro-3-furanyl(1S,2R)-3-[[(4-aminophenyl)sulfonyl](isobutyl)amino]-1-benzyl-2-(phosphonooxy)propylcarbamate” (SmithKline Beecham Corporation, priority 1998, dated 2003)", "assay": "physchem", "data": [{"smiles": "CC(C)CN(C[C@@H](O)[C@H](Cc1ccccc1)NC(=O)O[C@H]1CCOC1)S(=O)(=O)c1ccc(N)cc1", "note": "(relative stereo) [amprenavir, [3S-[3R*(1R*,2S*)]]-[3-[[(4-aminophenyl)sulfonyl](2-methyl-propyl)amino]-2-hydroxy-1-phenylmethyl)propyl]-tetrahydro-3-furanyl ester, reference compound]", "values": [{"measurement": "solubility", "setting": "0.1N HCl, pH 1, simulated gastric fluid", "result": 290, "unit": "µg/mL"}, {"measurement": "solubility", "setting": "aqueous solution, pH 6.3, aqueous buffer", "result": 95, "unit": "µg/mL"}]}, {"smiles": "CC(C)CN(C[C@@H](OP(=O)([O-])[O-])[C@H](Cc1ccccc1)NC(=O)O[C@H]1CCOC1)S(=O)(=O)c1ccc(N)cc1.[Ca+2]", "note": "[compound of formula (I), calcium (3S) tetrahydro-3-furanyl (1S,2R)-3-[[(4-aminophenyl)sulfonyl](isobutyl)amino]-1-benzyl-2-(phosphonooxy)propylcarbamate]", "values": [{"measurement": "solubility", "setting": "pH 1.47, simulated gastric fluid", "result": 3200, "unit": "µg/mL"}, {"measurement": "solubility", "setting": "pH 3.27, aqueous buffer", "result": 61100, "unit": "µg/mL"}, {"measurement": "solubility", "setting": "pH 4.11, aqueous buffer", "result": 9410, "unit": "µg/mL"}, {"measurement": "solubility", "setting": "pH 5.02, aqueous buffer", "result": 3200, "unit": "µg/mL"}, {"measurement": "solubility", "setting": "pH 6.27, aqueous buffer", "result": 531, "unit": "µg/mL"}]}]}
